# From patent US20260083708A1, “IL-17 MODULATORS AND USES THEREOF” (NNOCARE PHARMA INC., priority 2024, published 2026)
# Assays:
# IL-17AA and IL-17RA = molecular target: T1, IL-17AA and IL-17RA (Homo sapiens, UniProt Q16552); assay: Competitive inhibition of human IL-17AA and IL-17RA binding (HTRF); conditions: recombinant IL-17AA (His-tag) and IL-17RA (hFc-tag); read-out: IC50 for Inhibiting IL-AA/IL-RA Binding
# T1 construct: purchased Sino Biological 12047-H07B (IL-17AA); 10895-H02H (IL-17RA)
# T1 sequence (Q16552 24-155): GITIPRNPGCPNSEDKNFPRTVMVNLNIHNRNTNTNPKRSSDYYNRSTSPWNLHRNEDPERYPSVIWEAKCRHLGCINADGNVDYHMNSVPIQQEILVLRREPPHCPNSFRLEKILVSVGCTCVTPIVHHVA
# Procedure: Example 42. Competitive Inhibition of Human IL-17AA and IL-17RA Binding
# Recombinant IL-17AA (His-tag, Catalog Number 12047-H07B) and IL-17RA (hFc-tag, Catalog Number 10895-H02H) were purchased from Sino Biological. In the experiment, 10 μL of IL-17AA (1 nM) or IL-17RA (1 nM) was added to 10 μL of anti-6His-Tb (0.4 nM, Revvity, Catalog Number 61HISTLF) or anti-human IgG-d2 (1 μg/mL, anti-human IgG-d2, Revvity, Catalog Number 61HFCDAF), respectively and incubated at room temperature for 1 hour. Compounds were serially diluted starting from 10 μM. 5 μL of each compound solution was incubated with 5 μL of a mixture of IL-17AA and anti-6His-Tb at room temperature for 2 hours. After pre-incubation, to which was added 10 μL of a mixture of IL-17RA and anti-human IgG-d2, and incubation was continued for additional 20 minutes. Subsequently, a microplate reader (Envision, PerkinElmer) was used to detect fluorescence intensity at 615 nm and 665 nm, and the ratio of intensity thereof indicates the degree of IL-17AA and IL-17RA interaction. The ratio of intensity in the absence of tested compound was the highest value of binding between IL-17AA and IL-17RA, and the ratio of intensity in the absence of IL-17AA was the lowest value.
# (§1) Therefore, the percentage of inhibition of tested compound was calculated as
# Experimental results were analyzed using XLfit (IDBS) for 4-parameter nonlinear fitting analysis, to provide the IC50 value for each tested compound (Table 1).
# [1] = tested on: IL-17AA-induced IL-17 signaling pathway; assay: Inhibition of IL-17AA-induced IL-17 signaling pathway in HEK-Blue IL-17 reporter cells (SEAP); assay type: cell-based; conditions: Homo sapiens; HEK-Blue IL-17 cells, IL-17AA 2.5 ng/mL, 20 hours; read-out: IC50 for Inhibiting IL-AA Signaling
# Excerpt: Example 43. Inhibition of IL-17AA-Induced IL-17 Signaling Pathway
# (§2) Interleukin-17 (IL-17) reporter cell line (HEK-Blue IL-17, InvivoGen, Catalog Number hkb-i117) is created by genetically engineering human IL-17RA/IL-17RC heterodimeric receptor and downstream adapter protein ACT1 into human embryonic kidney 293 cells (HEK293). These cells also express secreted embryonic alkaline phosphatase (SEAP) reporter gene induced by NF-κB and AP-1. Therefore, IL-17AA can activate NF-κB and AP-1 signaling pathways inside the cells by binding to IL-17RA/RC on cell membrane, leading to expression of SEAP protein. After a colorimetric reaction between SEAP protein and Quanti-Blue solution, the absorbance at 620 nm is measured using a microplate reader (BioTek H1M, Agilent, Catalog Number SH1M-SN) to determine IL-17AA-activated signaling pathway.
# (§3) In the experiment, HEK-Blue IL-17 cells were cultured at 37° C. under 5% CO2 conditions using the recommended medium from InvivoGen's instruction. Compounds were serially diluted starting from 10 μM. 4 μL of each compound solution was added to 32 μL of cells (10,000 cells) at 37° C. for 1 hour. After pre-incubation, 4 μL of IL-17AA with a final concentration of 2.5 ng/mL (Sino Biological, Catalog Number 12047-HNAS) was added to the cells, and incubation was continued for additional 20 hours. After incubation, 5 μL of cell culture supernatant was added to 45 μL of Quanti-Blue for the colorimetric reaction. The group without tested compound had the highest absorbance at 620 nm, and the group without IL-17AA had the lowest absorbance at 620 nm.
# as §1
# (§4) Experimental results were analyzed using XLfit (IDBS) for 4-parameter nonlinear fitting analysis to provide the IC50 value for each tested compound (Table 1).
# [2] = tested on: IL-17AF-induced IL-17 signaling pathway; assay: Inhibition of IL-17AF-induced IL-17 signaling pathway; assay type: cell-based; conditions: Homo sapiens; IL-17AF used instead of IL-17AA; read-out: IC50 for Inhibiting IL-AF Signaling
# Excerpt: as §2, §3, §1, §4
# Example 44. Inhibition of IL-17AF-Induced IL-17 Signaling Pathway
# The same experimental procedure to Example […] was followed where IL-17AF was used instead of IL-17AA.
IC50 (IL-17AA and IL-17RA),IC50 [1],IC50 [2],Compound
6.3 nM,6.3 nM,13 nM,"CCn1nccc1C(=O)N[C@H](C(=O)Nc1ccc([C@H](C)[C@@H](NC(=O)[C@H](C)OC)c2nncn2CC2CC2)cc1F)C(C1CC1)C1CC1 [Compound 16, N-((S)-1,1-dicyclopropyl-3-((4-((1R,2S)-1-(4-(cyclopropylmethyl)-4H-1,2,4-triazol-3-yl)-1-((S)-2-methoxypropanamido)propan-2-yl)-2-fluorophenyl)amino)-3-oxopropan-2-yl)-1-ethyl-1H-pyrazole-5-carboxamide]"
442 nM,85 nM,251 nM,"CCn1nccc1C(=O)N[C@H](C(=O)Nc1ccc([C@H](C)[C@@H](NC(=O)COC)c2nnc(C)s2)cc1F)C(C1CC1)C1CC1 [Compound 17, N-((S)-1,1-dicyclopropyl-3-((2-fluoro-4-((1R,2S)-1-(2-methoxyacetamido)-1-(5-methyl-1,3,4-thiadiazol-2-yl)propan-2-yl)phenyl)amino)-3-oxopropan-2-yl)-1-ethyl-1H-pyrazole-5-carboxamide]"
17 nM,14 nM,51 nM,"CCn1nccc1C(=O)N[C@H](C(=O)Nc1ccc([C@H](C)[C@@H](NC(=O)COC)c2nnc(C)n2CC2CC2)cc1F)C(C1CC1)C1CC1 [Compound 18, N-((S)-1,1-dicyclopropyl-3-((4-((1R,2S)-1-(4-(cyclopropylmethyl)-5-methyl-4H-1,2,4-triazol-3-yl)-1-(2-methoxyacetamido)propan-2-yl)-2-fluorophenyl)amino)-3-oxopropan-2-yl)-1-ethyl-1H-pyrazole-5-carboxamide]"
4.5 nM,2.6 nM,4 nM,"CCn1nccc1C(=O)N[C@H](C(=O)Nc1ccc([C@H](C)[C@@H](NC(=O)COC)c2ncnn2CC2CC2)cc1F)C(C1CC1)C1CC1 [Compound 19, N-((S)-1,1-dicyclopropyl-3-((4-((1R,2S)-1-(1-(cyclopropylmethyl)-1H-1,2,4-triazol-5-yl)-1-(2-methoxyacetamido)propan-2-yl)-2-fluorophenyl)amino)-3-oxopropan-2-yl)-1-ethyl-1H-pyrazole-5-carboxamide]"
20 nM,14 nM,50 nM,"CCn1nccc1C(=O)N[C@H](C(=O)Nc1ccc([C@H](C)[C@@H](NC(=O)COC)c2ncn(CC3CC3)n2)cc1F)C(C1CC1)C1CC1 [Compound 20, N-((S)-1,1-dicyclopropyl-3-((4-((1R,2S)-1-(1-(cyclopropylmethyl)-1H-1,2,4-triazol-3-yl)-1-(2-methoxyacetamido)propan-2-yl)-2-fluorophenyl)amino)-3-oxopropan-2-yl)-1-ethyl-1H-pyrazole-5-carboxamide]"
2.2 nM,1.8 nM,3.7 nM,"CCn1nccc1C(=O)N[C@H](C(=O)Nc1ccc([C@H](C)[C@@H](NC(=O)N(C)C2CC2)c2nncn2CC2CC2)cc1F)C(C1CC1)C1CC1 [Compound 21, N-((S)-1,1-dicyclopropyl-3-((4-((1R,2S)-1-(3-cyclopropyl-3-methylureido)-1-(4-(cyclopropylmethyl)-4H-1,2,4-triazol-3-yl)propan-2-yl)-2-fluorophenyl)amino)-3-oxopropan-2-yl)-1-ethyl-1H-pyrazole-5-carboxamide]"
13 nM,28 nM,46 nM,"CC(=O)N[C@@H](c1nncn1CC1CC1)[C@@H](C)c1ccc(NC(=O)[C@@H](NC(=O)c2ccnn2C(C)C)C(C2CC2)C2CC2)c(F)c1 [Compound 22, N-((S)-1-((4-((1R,2S)-1-acetamido-1-(4-(cyclopropylmethyl)-4H-1,2,4-triazol-3-yl)propan-2-yl)-2-fluorophenyl)amino)-3,3-dicyclopropyl-1-oxopropan-2-yl)-1-isopropyl-1H-pyrazole-5-carboxamide]"
21 nM,25 nM,91 nM,"CCn1nccc1C(=O)N[C@H](C(=O)Nc1ccc([C@H](C)[C@@H](NC(=O)COC)c2nncn2CC23CC(F)(C2)C3)cc1F)C(C1CC1)C1CC1 [Compound 23, N-((S)-1,1-dicyclopropyl-3-((2-fluoro-4-((1R,2S)-1-(4-((3-fluorobicyclo[1.1.1]pentan-1-yl)methyl)-4H-1,2,4-triazol-3-yl)-1-(2-methoxyacetamido)propan-2-yl)phenyl)amino)-3-oxopropan-2-yl)-1-ethyl-1H-pyrazole-5-carboxamide]"
3.2 nM,2.5 nM,10 nM,"CCn1nccc1C(=O)N[C@H](C(=O)Nc1ccc([C@H](C)[C@@H](NC(=O)COC)c2nnnn2CC2CC2)cc1F)C(C1CC1)C1CC1 [Compound 24, N-((S)-1,1-dicyclopropyl-3-((4-((1R,2S)-1-(1-(cyclopropylmethyl)-1H-tetrazol-5-yl)-1-(2-methoxyacetamido)propan-2-yl)-2-fluorophenyl)amino)-3-oxopropan-2-yl)-1-ethyl-1H-pyrazole-5-carboxamide]"
57 nM,115 nM,313 nM,"CCn1nccc1C(=O)N[C@H](C(=O)Nc1ccc([C@H](C)[C@@H](NC(=O)COC)c2nc(C)nn2CC2CC2)cc1F)C(C1CC1)C1CC1 [Compound 25, N-((S)-1,1-dicyclopropyl-3-((4-((1R,2S)-1-(1-(cyclopropylmethyl)-3-methyl-1H-1,2,4-triazol-5-yl)-1-(2-methoxyacetamido)propan-2-yl)-2-fluorophenyl)amino)-3-oxopropan-2-yl)-1-ethyl-1H-pyrazole-5-carboxamide]"
0.8 nM,2 nM,4.5 nM,"CCc1nonc1C(=O)N[C@H](C(=O)Nc1ccc([C@H](C)[C@@H](NC(=O)[C@H](C)OC)c2nncn2CC2CC2)cc1F)C(C1CC1)C1CC1 [Compound 26, N-((S)-1,1-dicyclopropyl-3-((4-((1R,2S)-1-(4-(cyclopropylmethyl)-4H-1,2,4-triazol-3-yl)-1-((S)-2-methoxypropanamido)propan-2-yl)-2-fluorophenyl)amino)-3-oxopropan-2-yl)-4-ethyl-1,2,5-oxadiazole-3-carboxamide]"
27 nM,39 nM,102 nM,"CCn1nccc1C(=O)N[C@H](C(=O)Nc1ccc([C@H](C)[C@@H](NC(=O)COC)c2nccnc2OC2CC2)cc1F)C(C1CC1)C1CC1 [Compound 27, N-((S)-1-((4-((1R,2S)-1-(3-cyclopropoxypyrazin-2-yl)-1-(2-methoxyacetamido)propan-2-yl)-2-fluorophenyl)amino)-3,3-dicyclopropyl-1-oxopropan-2-yl)-1-ethyl-1H-pyrazole-5-carboxamide]"
7.8 nM,8.4 nM,24 nM,"CCn1nccc1C(=O)N[C@H](C(=O)Nc1ccc([C@H](C)[C@@H](NC(=O)COC)c2ncccc2CC2CC2)cc1F)C(C1CC1)C1CC1 [Compound 28, N-((S)-1,1-dicyclopropyl-3-((4-((1R,2S)-1-(3-(cyclopropylmethyl)pyridin-2-yl)-1-(2-methoxyacetamido)propan-2-yl)-2-fluorophenyl)amino)-3-oxopropan-2-yl)-1-ethyl-1H-pyrazole-5-carboxamide]"
